Source: ChEMBL document CHEMBL3091275, “Oxime-based inhibitors of glucose transporter 1 displaying antiproliferative effects in cancer cells” (Bioorg Med Chem Lett, 2013)
Active and inactive are the calls of the source. The calls are words filed in the database; no cut-off is given here.

Assays:
[1] = molecular target: T1, Solute carrier family 2, facilitated glucose transporter member 1 (Homo sapiens) (UniProt P11166); test: Inhibition of GLUT1 in human H1299 cells assessed as inhibition of 2-deoxy-D-[3H]-glucose uptake at 30 uM incubated for 15 mins prior to 2-deoxy-D-[3H]-glucose addition measured after 30 mins by liquid scintillation counting analysis; type: cell-based
T1 sequence (whole entry): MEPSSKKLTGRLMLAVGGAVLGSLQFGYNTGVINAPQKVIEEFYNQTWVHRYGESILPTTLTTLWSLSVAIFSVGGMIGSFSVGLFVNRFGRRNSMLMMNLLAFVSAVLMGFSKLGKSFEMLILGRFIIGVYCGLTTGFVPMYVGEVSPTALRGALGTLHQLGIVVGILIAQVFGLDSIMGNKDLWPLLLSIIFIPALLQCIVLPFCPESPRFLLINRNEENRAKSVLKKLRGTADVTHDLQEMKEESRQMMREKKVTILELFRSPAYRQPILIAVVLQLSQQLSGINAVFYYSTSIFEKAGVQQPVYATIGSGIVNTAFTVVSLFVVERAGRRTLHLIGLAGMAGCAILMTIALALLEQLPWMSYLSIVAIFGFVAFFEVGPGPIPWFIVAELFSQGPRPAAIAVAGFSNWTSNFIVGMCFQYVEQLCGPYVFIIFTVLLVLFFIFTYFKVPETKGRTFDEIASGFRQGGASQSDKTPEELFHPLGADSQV

[2] = Cytotoxicity against human H1299 cells assessed as growth inhibition after 48 hrs by MTT assay; type: functional, cell-based; conditions: NCI-H1299, 48 h
[3] = molecular target: T2, Solute carrier family 2, facilitated glucose transporter member 1 (Homo sapiens, UniProt P11166); test: Inhibition of GLUT1 in human H1299 cells assessed as inhibition of 2-deoxy-D-[3H]-glucose uptake incubated for 15 mins prior to 2-deoxy-D-[3H]-glucose addition measured after 30 mins by liquid scintillation counting analysis; type: cell-based
T2 sequence (P11166 whole entry): T1 sequence (whole entry)

[4] = molecular target: T3, Estrogen receptor (Homo sapiens, UniProt P03372); test: Binding affinity to human estrogen receptor assessed as decrease in estradiol-dependent beta-galactosidase activity
T3 sequence (P03372 whole entry): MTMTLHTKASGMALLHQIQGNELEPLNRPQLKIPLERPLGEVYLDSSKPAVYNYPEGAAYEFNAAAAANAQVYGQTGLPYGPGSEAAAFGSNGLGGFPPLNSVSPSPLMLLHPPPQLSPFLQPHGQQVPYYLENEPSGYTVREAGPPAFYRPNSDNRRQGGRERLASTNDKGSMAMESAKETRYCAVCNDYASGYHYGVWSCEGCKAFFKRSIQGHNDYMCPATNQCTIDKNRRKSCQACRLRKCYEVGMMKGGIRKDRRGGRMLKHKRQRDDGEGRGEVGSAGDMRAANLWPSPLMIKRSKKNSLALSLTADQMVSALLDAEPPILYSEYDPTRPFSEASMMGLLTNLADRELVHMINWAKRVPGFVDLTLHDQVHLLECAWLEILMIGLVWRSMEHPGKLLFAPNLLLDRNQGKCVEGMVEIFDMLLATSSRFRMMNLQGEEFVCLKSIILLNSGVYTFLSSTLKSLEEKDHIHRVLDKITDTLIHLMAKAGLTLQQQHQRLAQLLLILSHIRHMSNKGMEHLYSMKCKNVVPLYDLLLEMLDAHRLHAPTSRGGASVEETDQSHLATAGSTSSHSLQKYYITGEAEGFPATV

[5] = molecular target: Estrogen receptor beta (Homo sapiens, UniProt Q92731); test: Displacement of [3H]E2 from full-length human ERbeta after 18 to 24 hrs by radiometric assay
Estrogen receptor beta, sequence (Q92731 whole entry): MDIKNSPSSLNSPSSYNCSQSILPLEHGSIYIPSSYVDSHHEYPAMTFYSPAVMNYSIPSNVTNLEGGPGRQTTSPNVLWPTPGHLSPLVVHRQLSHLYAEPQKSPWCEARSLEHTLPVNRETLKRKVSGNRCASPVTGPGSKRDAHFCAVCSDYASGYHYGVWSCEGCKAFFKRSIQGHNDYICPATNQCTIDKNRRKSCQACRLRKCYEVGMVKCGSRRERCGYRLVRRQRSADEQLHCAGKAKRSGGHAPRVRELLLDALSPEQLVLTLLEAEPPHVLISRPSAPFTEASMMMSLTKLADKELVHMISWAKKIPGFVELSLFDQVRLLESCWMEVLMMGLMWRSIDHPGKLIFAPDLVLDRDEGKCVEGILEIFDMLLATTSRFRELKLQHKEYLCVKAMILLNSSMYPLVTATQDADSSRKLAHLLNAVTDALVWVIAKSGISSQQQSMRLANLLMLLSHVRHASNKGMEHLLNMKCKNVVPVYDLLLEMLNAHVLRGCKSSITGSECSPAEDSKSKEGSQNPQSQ

[6] = test system: NCI-H1299; test: Cytotoxicity against human H1299 cells assessed as growth inhibition at 30 uM after 48 hrs by MTT assay; type: functional, cell-based

| inhibition [1] | IC50 [3] [µM] | SMILES | IC50 [2] [µM] | also measured |
| --- | --- | --- | --- | --- |
| Active |  | N#Cc1c(-c2ccc(O)cc2)ccc(/C=N/O)c1O |  |  |
| Active |  | O/N=C/c1c(O)ccc(-c2ccc(O)cc2)c1Cl |  |  |
|  | 23.4 | COc1ccc(-c2ccc(O)c(/C=N/O)c2)cc1 | 20.4 |  |
| Active |  | Cc1c(-c2ccc(O)cc2)ccc(/C=N/O)c1O |  |  |
|  | 10.6 | C/C(=N\O)c1ccc(-c2ccc(O)cc2)c(Cl)c1O | 34.8 |  |
|  | 15.5 | COc1ccc(-c2ccc(/C(C)=N/O)c(O)c2Cl)cc1F | 39.6 |  |
| Active |  | O/N=C/c1c(O)ccc(-c2ccc(O)cc2)c1-c1ccc(O)cc1 |  |  |
| Active |  | COc1ccc(-c2ccc(/C=N/O)c(O)c2C)cc1 |  |  |
|  | 8.5 | COc1ccc(-c2ccc(O)c(/C=N/O)c2)cc1F | 14.1 |  |
| Active |  | O/N=C/c1c(O)ccc(-c2ccc(O)c(F)c2)c1Cl |  |  |
| Active |  | O/N=C/c1cc(-c2ccc(O)cc2)ccc1O |  |  |
|  | 10.9 | O=C(Oc1cccc(F)c1OC(=O)c1cccc(O)c1)c1cccc(O)c1 | 20.4 |  |
| Active |  | C/C(=N\O)c1ccc(-c2ccc(O)c(F)c2)c(Cl)c1O |  |  |
| Active |  | O/N=C/c1cc(-c2ccc(O)c(F)c2)ccc1O |  | Kd [5]: 0.051 µM; growth inhibition (GI) [6]: Active |

| SMILES | inhibition [1] | IC50 [3] [µM] | IC50 [2] [µM] | also measured |
| --- | --- | --- | --- | --- |
| O=C(CCc1ccc(O)cc1)c1c(O)cc(O)cc1O [PHLORETIN] |  | 21.4 | 54 | IC50 [4]: 0.3 µM |
